According to US5314920A, “Ethynyl-alanine aryl/alkylsulfonyl-terminated amino-diol compounds for treatment of hypertension” (G. D. Searle & Co., priority 1992, dated 1994):
One block for each compound: values may come before it. Non-standard residues stand in square brackets, D forms with d. Residues, ends and D or L forms follow the SMILES beside them. *: point of attachment. Sta = CC(C)C[C@H](N)[C@@H](O)CC(=O)O; Isovaleryl = CC(C)CC(=O)*

How the values were obtained:
human renin = molecular target: T1, human renin (Homo sapiens, UniProt P00797); test: Human Renin Inhibition in vitro; assay type: biochemical; details: pH 7.4, 37° C., two hours, human plasma, angiotensin I by radioimmunoassay
T1 construct: purchased National Institute for Biological Standards, London
T1 sequence (P00797 67-406): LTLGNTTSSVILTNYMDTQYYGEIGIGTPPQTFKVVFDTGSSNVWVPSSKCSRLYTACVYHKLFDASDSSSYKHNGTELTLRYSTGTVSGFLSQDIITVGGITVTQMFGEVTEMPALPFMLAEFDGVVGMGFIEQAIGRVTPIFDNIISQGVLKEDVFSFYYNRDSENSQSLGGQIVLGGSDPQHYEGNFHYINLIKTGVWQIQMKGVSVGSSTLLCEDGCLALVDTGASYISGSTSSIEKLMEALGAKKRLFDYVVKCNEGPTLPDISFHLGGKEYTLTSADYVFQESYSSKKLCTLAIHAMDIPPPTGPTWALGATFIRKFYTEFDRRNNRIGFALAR
Method: Compounds of Formula I were evaluated as inhibitors of human renin in an vitro assay, as follows: This human renin inhibition test has been previously described in detail [Papaioannou et al., Clinical and Experimental Hypertension, A7 (9), 1243-1257 (1985)]. Human renin was obtained from the National Institute for Biological Standards, London. An incubation mixture was prepared containing the following components: in a total volume of 0.25 mL: 100 mM Tris-acetate buffer at pH 7.4, 25×10^-6 Goldblatt units of renin, 0.05 mL of plasma from human volunteers taking oral contraceptives, 6.0 mM Na-EDTA, 2.4 mM phenylmethyl sulfonyl fluoride, 1.5 mM 8-hydroxyquinoline, 0.4 mg/mL bovine serum albumin (BSA), and 0.024 mg/mL neomycin sulfate. This mixture was incubated for two hours at 37° C. in the presence or absence of renin inhibitors. The produced angiotensin I was determined by radioimmunoassay (New England Nuclear kit). Test compounds to be assayed were dissolved in DMSO and diluted with 100 mM Tris-acetate buffer at pH 7.4 containing 0.5% BSA to the appropriate concentration. The final concentration of organic solvent in the reaction mixture was less than 1%. Control incubations at 37° C. were used to correct for effects of organic solvent on renin activity.

renin = details: Umezawa et al, J. Antibiot. (Tokyo), 23, 259-262 (1970); cited from earlier work
hog renin = details: after the injection of hog renin into nephrectomized rats; Gross et al, Science, 175, 656 (1971); cited from earlier work
pepsin = details: Umezawa et al, J. Antibiot. (Tokyo), 23, 259-262 (1970); cited from earlier work
cathepsin D = details: Umezawa et al, J. Antibiot. (Tokyo), 23, 259-262 (1970); cited from earlier work

inhibition at 0.1 µM (human renin; @ 100 nM): 34%
Compound: C#CC[C@H](NC(=O)CCS(=O)(=O)c1ccccc1)C(=O)N[C@@H](CC1CCCCC1)[C@@H](O)[C@@H](O)CC(C)C [Example 3, N-[1S,1R*(cyclohexylmethyl)-2S*,3R*-dihydroxy-5-methylhexyl]-2R*-[[1-oxo-3-[phenylsulfonyl]propyl]amino]-4-pentynamide]

IC50 (human renin): 230 pM
Compound: C#CC[C@H](NC(=O)C(Cc1ccccc1)CS(=O)(=O)C(C)(C)C)C(=O)N[C@@H](CC1CCCCC1)[C@@H](O)[C@@H](O)CC(C)C (stereo partly drawn) [Example 1, N-[[1R*-[[1S,1R*(cyclohexylmethyl)-2S*,3R*-dihydroxy-5-methylhexyl]amino]carbonyl]-3-butynyl]-α-[[(1,1-dimethylethyl)sulfonyl]methyl]benzenepropanamide]

IC50 (human renin): 170 pM
Compound: C#CC[C@H](NC(=O)[C@H](Cc1ccccc1)CS(=O)(=O)C(C)(C)C)C(=O)N[C@@H](CC1CCCCC1)[C@@H](O)[C@@H](O)CC(C)C [Example 2, N-[[1R*-[[1S,1R*(cyclohexylmethyl)-2S*,3R*-dihydroxy-5-methylhexyl]amino]carbonyl]-3-butynyl]-αR*-[[(1,1-dimethylethyl)sulfonyl]methyl]benzenepropanamide]

Compound: CC(C)CC(=O)N[C@H](C(=O)N[C@H](C(=O)N[C@@H](CC(C)C)[C@@H](O)CC(=O)N[C@@H](C)C(=O)N[C@@H](CC(C)C)[C@@H](O)CC(=O)O)C(C)C)C(C)C [pepstatin] (Isovaleryl-VV[Sta]A[Sta]-OH)
inhibitor of renin (renin): inhibitor | blood pressure in vivo (hog renin): reduce blood pressure | inhibitor of pepsin (pepsin): inhibitor | inhibitor of cathepsin D (cathepsin D): inhibitor
